Laboratory results taken from US20060069132A1, “Azolecarboxamide herbicides” (priority 2004, published 2006).

Key:
[1] = system: velvetleaf; assay: Test B pre-/postemergence herbicide test; type: in vivo, Abutilon theophrasti; conditions: for Plant response rating (0 to 100 scale), Velvetleaf: 0 is no effect, preemergence
Summary of the method: (§1)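 Formulation: non-phytotoxic solvent mix with surfactant. Timing: preemergence on seed and postemergence on 2–18 cm plants, applied concurrently. Readout after 13–15 d greenhouse: visual 0–100 control rating against controls.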

[2] = system: barnyardgrass; assay: Test C flooded paddy test; type: in vivo, Echinochloa crus-galli; conditions: for Plant response rating, Barnyardgrass: 500 g ai/ha, visual rating after 12 to 14 days
Summary of the method: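 Greenhouse test with a 12–14 day hold after application and visual comparison with controls. Emerged plants were 1- to 4-leaf stage (2–18 cm) when sprayed postemergence, and the paddy barnyardgrass was at 2 leaves under flooded conditions. 100 = complete control.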

[3] = system: rice; assay: Test B flooded paddy test; type: in vivo, Oryza sativa; conditions: 1000 g ai/ha, scale 0 to 100 (0 no effect, 100 complete control)
Summary of the method: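 Scale 0–100: zero equals no visible effect, 100 complete control, judged by eye relative to controls. Timing: 13 to 15 days in greenhouse post-treatment. Growth stage at spraying: two leaves (paddy) or one to four leaves, 2–18 cm (postemergence).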

[4] = system: barnyardgrass; assay: Test B pre-/postemergence herbicide test; type: in vivo, Echinochloa crus-galli; conditions: for Plant response rating (0 to 100 scale), Barnyardgrass: 0 is no effect
Summary of the method: (§2)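 Herbicidal effect was judged by eye on a 0–100 scale after plants stood 13 to 15 days in the greenhouse following pre- or postemergence treatment with surfactant-containing formulations.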

[5] = system: small flower umbrella sedge; assay: Test B flooded paddy test; type: in vivo, Cyperus difformis; conditions: 1000 g ai/ha, scale 0 to 100 (0 no effect, 100 complete control)
Summary of the method: (§3)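 Treated at 2-leaf (paddy) or 1–4-leaf, 2–18 cm (postemergence); greenhouse 13–15 d; visual score vs control, 0 none to 100 complete control; dash = not tested.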

[6] = system: ducksalad; assay: Test C flooded paddy test; type: in vivo, Heteranthera limosa; conditions: for Plant response rating, Ducksalad: 500 g ai/ha, visual rating after 12 to 14 days
[7] = system: wild oat; assay: Test B postemergence herbicide test; type: in vivo, Avena fatua
Summary of the method: (§4)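 Formulated test chemicals went onto postemergence plants measuring 2 to 18 cm, at one to four leaves. For the paddy assay, species had reached two leaves. Scoring took place 13–15 days later by eye, relative to untreated plants, using 0 for no effect up to 100 for full control.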

[8] = system: blackgrass; assay: Test B postemergence herbicide test; type: in vivo, Alopecurus myosuroides
Summary of the method: as §3

[9] = system: giant foxtail; assay: Test B pre-/postemergence herbicide test; type: in vivo, Setaria faberi; conditions: for Plant response rating (0 to 100 scale), Foxtail, Giant: 0 is no effect
Summary of the method: as §1

[10] = system: lambsquarters; assay: Test B pre-/postemergence herbicide test; type: in vivo, Chenopodium album; conditions: for Plant response rating (0 to 100 scale), Lambsquarters: 0 is no effect
Summary of the method: as §1

[11] = system: ducksalad; assay: Test B flooded paddy test; type: in vivo, Heteranthera limosa; conditions: 1000 g ai/ha, scale 0 to 100 (0 no effect, 100 complete control)
Summary of the method: as §3

[12] = system: smallflower umbrella sedge; assay: Test C flooded paddy test; type: in vivo, Cyperus difformis; conditions: for Plant response rating, Sedge, Umbrella: 500 g ai/ha, visual rating after 12 to 14 days
[13] = system: pigweed; assay: Test B pre-/postemergence herbicide test; type: in vivo, Amaranthus retroflexus; conditions: for Plant response rating (0 to 100 scale), Pigweed: 0 is no effect
Summary of the method: as §1

[14] = system: cocklebur; assay: Test B pre-/postemergence herbicide test; type: in vivo, Xanthium strumarium; conditions: for Plant response rating (0 to 100 scale), Cocklebur: 0 is no effect
Summary of the method: as §2

[15] = system: Surinam grass; assay: Test B pre-/postemergence herbicide test; type: in vivo, Urochloa decumbens; conditions: for Plant response rating (0 to 100 scale), Surinam Grass: 0 is no effect
Summary of the method: as §1

[16] = system: morningglory; assay: Test B pre-/postemergence herbicide test; type: in vivo, Ipomoea coccinea; conditions: for Plant response rating (0 to 100 scale), Morningglory: 0 is no effect
Summary of the method: as §2

[17] = system: large crabgrass; assay: Test B pre-/postemergence herbicide test; type: in vivo, Digitaria sanguinalis; conditions: for Plant response rating (0 to 100 scale), Crabgrass, Large: 0 is no effect, preemergence
Summary of the method: as §1

[18] = system: wheat; assay: Test B postemergence herbicide test; type: in vivo, Triticum aestivum; design: key to Wheat plant response rating: 0 = no effect, 100 = complete control
Summary of the method: as §4

[19] = system: rice; assay: Test C flooded paddy test; type: in vivo, Oryza sativa; conditions: for Plant response rating, Rice: 500 g ai/ha, visual rating after 12 to 14 days
Summary of the method: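 Plants were grown to the 1- to 4-leaf stage (2–18 cm) and then treated postemergence, or grown to the 2-leaf stage for the flooded paddy test. They were held in a greenhouse for 12 to 14 days and then scored by eye against controls, where 0 is no effect and 100 is complete control.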

[20] = system: barnyardgrass; assay: Test B flooded paddy test; type: in vivo, Echinochloa crus-galli; conditions: 1000 g ai/ha, scale 0 to 100 (0 no effect, 100 complete control)
Summary of the method: as §3

[21] = system: corn; assay: Test B pre-/postemergence herbicide test; type: in vivo, Zea mays; conditions: for Plant response rating (0 to 100 scale), Corn: 0 is no effect
Summary of the method: as §1

[22] = 125 g ai/ha, 100 is complete control
[23] = 125 g ai/ha, visual rating, scale 0 (no effect) to 100 (complete control), postemergence
[24] = Postemergence, 500 g ai/ha, scale 0 (no effect) to 100 (complete control)
[25] = 62 g ai/ha, scale 0 to 100 (0 no effect, 100 complete control)
[26] = 125 g ai/ha, scale 0 to 100 (0 no effect, 100 complete control)
[27] = 250 g ai/ha, scale of 0 to 100, 0 is no effect, 100 is complete control
[28] = scale 0 to 100 (0 no effect, 100 complete control)
[29] = 125 g ai/ha, 100 is complete control, preemergence
[30] = postemergence, 500 g ai/ha, scale 0 to 100, 0 is no effect, 100 is complete control
[31] = 500 g ai/ha, visual rating, 0 = no effect, 100 = complete control, preemergence

CCNC(=O)c1cccc(NC(=O)c2nn(C(C)C)nc2C)c1 [Compound 405]
Plant response rating (0 to 100 scale), Velvetleaf [1, 22]: 0 | Velvetleaf plant response rating [1, 23]: 10 | Velvetleaf plant response rating [1, 24]: 30 | Barnyardgrass plant response rating [2, 25]: 0 | Barnyardgrass plant response rating [2, 26]: 0 | Barnyardgrass plant response rating [2, 27]: 0 | Plant response rating, Barnyardgrass [2, 28]: 20 | Rice plant response rating [3]: 50 | Plant response rating (0 to 100 scale), Barnyardgrass [4, 29]: 10 | Barnyardgrass plant response rating [4, 23]: 10 | Barnyardgrass plant response rating [4, 24]: 10 | Sedge, Umbrella plant response rating [5]: 90 | Ducksalad plant response rating ([6]; 62 g ai/ha, scale 0 to 100): 0 | Ducksalad plant response rating [6, 26]: 0 | Ducksalad plant response rating [6, 27]: 20 | Plant response rating, Ducksalad [6, 28]: 30 | Oat, Wild plant response rating [7, 23]: 0 | Oat, Wild plant response rating [7, 24]: 10 | Blackgrass plant response rating [8, 23]: 0 | Blackgrass plant response rating [8, 24]: 10 | Plant response rating (0 to 100 scale), Foxtail, Giant [9, 29]: 0 | Foxtail, Giant plant response rating [9, 23]: 0 | Foxtail, Giant plant response rating [9, 24]: 20 | Plant response rating (0 to 100 scale), Lambsquarters [10, 29]: 70 | Lambsquarters plant response rating [10, 23]: 50 | Lambsquarters plant response rating [10, 24]: 70 | Ducksalad plant response rating [11]: 80 | Sedge, Umbrella plant response rating ([12]; 62 g ai/ha, scale 0 to 100): 40 | Sedge, Umbrella plant response rating [12, 26]: 50 | Sedge, Umbrella plant response rating [12, 27]: 70 | Plant response rating, Sedge, Umbrella [12, 28]: 70 | Plant response rating (0 to 100 scale), Pigweed [13, 29]: 10 | Pigweed plant response rating [13, 23]: 30 | Pigweed plant response rating [13, 24]: 50 | Plant response rating (0 to 100 scale), Cocklebur [14, 29]: 0 | Cocklebur plant response rating [14, 23]: 10 | Cocklebur plant response rating [14, 24]: 20 | Plant response rating (0 to 100 scale), Surinam Grass [15, 29]: 0 | Surinam Grass plant response rating [15, 23]: 0 | Surinam Grass plant response rating [15, 24]: 10 | Plant response rating (0 to 100 scale), Morningglory [16, 29]: 30 | Morningglory plant response rating [16, 23]: 20 | Morningglory plant response rating [16, 24]: 60 | Plant response rating (0 to 100 scale), Crabgrass, Large [17, 22]: 30 | Crabgrass, Large plant response rating [17, 23]: 10 | Crabgrass, Large plant response rating [17, 24]: 20 | Wheat plant response rating [18, 23]: 0 | Wheat plant response rating ([18]; 500 g ai/ha, scale 0 to 100, 0 no effect, 100 complete control, preemergence): 20 | Wheat plant response rating [18, 24]: 0 | Rice plant response rating ([19]; 62 g ai/ha, scale 0 to 100): 0 | Rice plant response rating [19, 26]: 0 | Rice plant response rating [19, 27]: 0 | Plant response rating, Rice [19, 28]: 20 | Barnyardgrass plant response rating [20]: 40 | Plant response rating (0 to 100 scale), Corn [21, 29]: 0 | Corn plant response rating [21, 23]: 10 | Corn plant response rating [21, 24]: 10

Cc1nn(C(C)(C)C)cc1C(=O)Nc1cc(C(=O)N(C)C)ccc1F [Compound 344]
Plant response rating (0 to 100 scale), Velvetleaf [1, 22]: 40 | Velvetleaf plant response rating [1, 23]: 20 | Velvetleaf plant response rating [1, 30]: 30 | Barnyardgrass plant response rating [2, 25]: 0 | Barnyardgrass plant response rating [2, 26]: 0 | Barnyardgrass plant response rating [2, 27]: 0 | Plant response rating, Barnyardgrass [2, 28]: 0 | Rice plant response rating [3]: 70 | Plant response rating (0 to 100 scale), Barnyardgrass [4, 29]: 20 | Barnyardgrass plant response rating [4, 23]: 0 | Plant response rating, Barnyardgrass [4, 31]: 70 | Barnyardgrass plant response rating [4, 30]: 10 | Sedge, Umbrella plant response rating [5]: 80 | Ducksalad plant response rating ([6]; 62 g ai/ha, scale 0 to 100): 0 | Ducksalad plant response rating [6, 26]: 0 | Ducksalad plant response rating [6, 27]: 20 | Plant response rating, Ducksalad [6, 28]: 45 | Oat, Wild plant response rating [7, 23]: 0 | Oat, Wild plant response rating [7, 30]: 0 | Blackgrass plant response rating [8, 23]: 0 | Blackgrass plant response rating [8, 30]: 0 | Plant response rating (0 to 100 scale), Foxtail, Giant [9, 29]: 10 | Foxtail, Giant plant response rating [9, 23]: 10 | Plant response rating, Foxtail, Giant [9, 31]: 60 | Foxtail, Giant plant response rating [9, 30]: 10 | Plant response rating (0 to 100 scale), Lambsquarters [10, 29]: 90 | Lambsquarters plant response rating [10, 23]: 20 | Plant response rating, Lambsquarters [10, 31]: 100 | Lambsquarters plant response rating [10, 30]: 40 | Ducksalad plant response rating [11]: 80 | Sedge, Umbrella plant response rating ([12]; 62 g ai/ha, scale 0 to 100): 0 | Sedge, Umbrella plant response rating [12, 26]: 75 | Sedge, Umbrella plant response rating [12, 27]: 75 | Plant response rating, Sedge, Umbrella [12, 28]: 85 | Plant response rating (0 to 100 scale), Pigweed [13, 29]: 90 | Pigweed plant response rating [13, 23]: 20 | Plant response rating, Pigweed [13, 31]: 90 | Pigweed plant response rating [13, 30]: 50 | Plant response rating (0 to 100 scale), Cocklebur [14, 29]: 20 | Cocklebur plant response rating [14, 23]: 0 | Plant response rating, Cocklebur [14, 31]: 70 | Cocklebur plant response rating [14, 30]: 10 | Plant response rating (0 to 100 scale), Surinam Grass [15, 29]: 30 | Surinam Grass plant response rating [15, 23]: 0 | Plant response rating, Surinam Grass [15, 31]: 100 | Surinam Grass plant response rating [15, 30]: 10 | Plant response rating (0 to 100 scale), Morningglory [16, 29]: 10 | Morningglory plant response rating [16, 23]: 10 | Plant response rating, Morningglory [16, 31]: 80 | Morningglory plant response rating [16, 30]: 50 | Plant response rating (0 to 100 scale), Crabgrass, Large [17, 22]: 60 | Crabgrass, Large plant response rating [17, 23]: 0 | Crabgrass, Large plant response rating [17, 30]: 10 | Wheat plant response rating [18, 23]: 0 | Wheat plant response rating [18, 30]: 10 | Rice plant response rating ([19]; 62 g ai/ha, scale 0 to 100): 0 | Rice plant response rating [19, 26]: 0 | Rice plant response rating [19, 27]: 0 | Plant response rating, Rice [19, 28]: 15 | Barnyardgrass plant response rating [20]: 60 | Plant response rating (0 to 100 scale), Corn [21, 29]: 10 | Corn plant response rating [21, 23]: 10 | Plant response rating, Corn [21, 31]: 90 | Corn plant response rating [21, 30]: 10
